What was measured:
[1] = target: Serine/threonine-protein kinase pim-3 (Homo sapiens) (UniProt Q86V86); assay: Selectivity interaction (KinomeScan (DiscoverX)) EUB0001049a PIM3; conditions: at 1 µM
[2] = target: T1, Mitogen-activated protein kinase 13 (Homo sapiens) (UniProt O15264); assay: Selectivity interaction (Kinase panel (literature)) EUB0001199aCl MAPK13; conditions: at 1 µM
T1 sequence (whole entry): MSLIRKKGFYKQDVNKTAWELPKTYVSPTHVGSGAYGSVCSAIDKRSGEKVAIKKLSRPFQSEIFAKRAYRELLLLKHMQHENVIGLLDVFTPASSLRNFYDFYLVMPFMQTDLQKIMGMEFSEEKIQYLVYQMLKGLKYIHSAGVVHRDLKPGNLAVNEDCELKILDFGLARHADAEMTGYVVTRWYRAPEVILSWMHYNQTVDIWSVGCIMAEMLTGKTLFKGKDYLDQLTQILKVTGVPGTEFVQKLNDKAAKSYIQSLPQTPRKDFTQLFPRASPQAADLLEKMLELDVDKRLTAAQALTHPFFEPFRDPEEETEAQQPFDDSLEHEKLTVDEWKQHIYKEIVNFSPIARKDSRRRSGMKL

[3] = target: Receptor-type tyrosine-protein kinase FLT3 (Homo sapiens) (UniProt P36888); assay: Selectivity interaction (KinaseProfiler screening (Millipore)) EUB0000601a FLT3; conditions: at 3 µM
[4] = target: Tyrosine-protein kinase JAK1 (Homo sapiens, UniProt P23458); assay: Selectivity interaction (NanoBRET assay (HEK293T cells)) EUB0001559a JAK1; type: cell-based, HEK-293T
Tyrosine-protein kinase JAK1, sequence (P23458 whole entry): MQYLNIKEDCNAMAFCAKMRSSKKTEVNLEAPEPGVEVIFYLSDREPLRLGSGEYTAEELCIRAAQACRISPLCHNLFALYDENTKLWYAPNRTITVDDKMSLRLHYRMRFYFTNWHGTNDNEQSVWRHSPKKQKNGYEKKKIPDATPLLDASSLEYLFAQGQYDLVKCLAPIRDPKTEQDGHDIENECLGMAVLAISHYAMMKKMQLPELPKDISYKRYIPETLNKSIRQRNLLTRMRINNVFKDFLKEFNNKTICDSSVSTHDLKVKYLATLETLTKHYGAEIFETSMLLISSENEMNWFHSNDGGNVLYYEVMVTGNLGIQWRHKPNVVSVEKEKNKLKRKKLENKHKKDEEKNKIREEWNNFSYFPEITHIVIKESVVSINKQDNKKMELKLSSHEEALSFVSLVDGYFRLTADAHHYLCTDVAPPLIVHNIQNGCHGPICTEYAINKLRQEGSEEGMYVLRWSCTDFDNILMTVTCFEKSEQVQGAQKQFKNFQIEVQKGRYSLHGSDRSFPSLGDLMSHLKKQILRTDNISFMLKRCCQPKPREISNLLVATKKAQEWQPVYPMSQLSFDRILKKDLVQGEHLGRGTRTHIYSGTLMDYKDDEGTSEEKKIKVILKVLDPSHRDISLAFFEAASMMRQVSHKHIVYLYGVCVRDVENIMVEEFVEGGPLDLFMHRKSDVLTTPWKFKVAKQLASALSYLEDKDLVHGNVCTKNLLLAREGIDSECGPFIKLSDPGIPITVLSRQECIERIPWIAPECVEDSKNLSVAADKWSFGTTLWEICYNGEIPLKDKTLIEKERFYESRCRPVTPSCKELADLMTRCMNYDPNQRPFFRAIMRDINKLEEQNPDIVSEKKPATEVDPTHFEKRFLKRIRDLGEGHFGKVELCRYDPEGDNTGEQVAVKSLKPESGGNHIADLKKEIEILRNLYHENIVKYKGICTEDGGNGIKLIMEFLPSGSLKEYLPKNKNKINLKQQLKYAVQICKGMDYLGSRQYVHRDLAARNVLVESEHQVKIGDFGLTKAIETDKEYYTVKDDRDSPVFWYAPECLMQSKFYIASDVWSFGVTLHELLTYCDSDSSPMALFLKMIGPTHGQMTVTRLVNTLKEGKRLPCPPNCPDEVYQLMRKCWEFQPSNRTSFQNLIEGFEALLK

[5] = target: Serine/threonine-protein kinase PLK1 (Homo sapiens, UniProt P53350); assay: Selectivity interaction (ActivX KiNativ screen (kinase selectivity in THP-1 cell lysates)) EUB0000639a PLK1; type: subcellular; conditions: lysate, at 0.04 µM
[6] = target: T2, Mitogen-activated protein kinase kinase kinase 7 (Homo sapiens) (UniProt O43318); assay: Selectivity interaction (ActivX KiNativ screen (kinase selectivity in THP-1 cell lysates)) EUB0000639a MAP3K7; type: subcellular; conditions: lysate
T2 sequence (whole entry): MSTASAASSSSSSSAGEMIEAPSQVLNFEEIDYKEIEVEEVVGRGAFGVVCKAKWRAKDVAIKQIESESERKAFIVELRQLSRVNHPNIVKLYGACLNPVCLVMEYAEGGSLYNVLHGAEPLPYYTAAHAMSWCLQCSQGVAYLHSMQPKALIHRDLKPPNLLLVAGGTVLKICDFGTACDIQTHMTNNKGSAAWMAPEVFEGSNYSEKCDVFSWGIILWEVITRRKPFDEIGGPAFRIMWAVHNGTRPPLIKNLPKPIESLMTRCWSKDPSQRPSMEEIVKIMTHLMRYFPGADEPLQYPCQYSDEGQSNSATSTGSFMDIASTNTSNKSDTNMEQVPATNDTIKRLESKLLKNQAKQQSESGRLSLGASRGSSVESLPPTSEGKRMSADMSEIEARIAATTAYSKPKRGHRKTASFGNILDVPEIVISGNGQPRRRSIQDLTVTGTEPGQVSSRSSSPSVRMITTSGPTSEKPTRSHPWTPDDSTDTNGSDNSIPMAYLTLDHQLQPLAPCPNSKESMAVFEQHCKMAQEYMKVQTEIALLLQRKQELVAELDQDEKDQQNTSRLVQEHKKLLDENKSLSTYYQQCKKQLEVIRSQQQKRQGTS

[7] = target: LIM domain kinase 1 (Homo sapiens) (UniProt P53667); assay: Selectivity interaction (KinomeScan (DiscoverX)) EUB0000092b LIMK1; conditions: at 10 µM
LIM domain kinase 1 (Homo sapiens), sequence (P53667 whole entry, looked up, the tested form may be a part): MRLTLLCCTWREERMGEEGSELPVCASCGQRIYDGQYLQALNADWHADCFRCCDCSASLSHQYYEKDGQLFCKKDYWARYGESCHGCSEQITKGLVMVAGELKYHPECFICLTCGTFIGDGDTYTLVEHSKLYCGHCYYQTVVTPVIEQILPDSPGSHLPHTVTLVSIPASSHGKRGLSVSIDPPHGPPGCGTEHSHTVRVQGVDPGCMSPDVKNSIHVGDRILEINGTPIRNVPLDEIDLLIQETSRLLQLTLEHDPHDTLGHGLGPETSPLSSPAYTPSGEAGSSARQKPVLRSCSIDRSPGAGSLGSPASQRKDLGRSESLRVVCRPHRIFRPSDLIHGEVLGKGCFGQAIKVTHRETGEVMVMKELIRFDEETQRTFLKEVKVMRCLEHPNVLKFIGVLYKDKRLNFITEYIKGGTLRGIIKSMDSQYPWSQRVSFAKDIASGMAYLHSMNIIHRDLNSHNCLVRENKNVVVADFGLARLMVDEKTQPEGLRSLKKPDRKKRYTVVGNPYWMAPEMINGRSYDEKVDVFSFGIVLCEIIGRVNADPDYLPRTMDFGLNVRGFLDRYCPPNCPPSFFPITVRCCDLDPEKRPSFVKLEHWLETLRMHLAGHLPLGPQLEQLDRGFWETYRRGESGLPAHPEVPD

[8] = target: Phosphatidylinositol 4-phosphate 3-kinase C2 domain-containing subunit beta (Homo sapiens) (UniProt O00750); assay: Selectivity interaction (KinomeScan (DiscoverX)) EUB0000092b PIK3C2B; conditions: at 10 µM
Phosphatidylinositol 4-phosphate 3-kinase C2 domain-containing subunit beta (Homo sapiens), sequence (O00750 whole entry, the tested form may be a part): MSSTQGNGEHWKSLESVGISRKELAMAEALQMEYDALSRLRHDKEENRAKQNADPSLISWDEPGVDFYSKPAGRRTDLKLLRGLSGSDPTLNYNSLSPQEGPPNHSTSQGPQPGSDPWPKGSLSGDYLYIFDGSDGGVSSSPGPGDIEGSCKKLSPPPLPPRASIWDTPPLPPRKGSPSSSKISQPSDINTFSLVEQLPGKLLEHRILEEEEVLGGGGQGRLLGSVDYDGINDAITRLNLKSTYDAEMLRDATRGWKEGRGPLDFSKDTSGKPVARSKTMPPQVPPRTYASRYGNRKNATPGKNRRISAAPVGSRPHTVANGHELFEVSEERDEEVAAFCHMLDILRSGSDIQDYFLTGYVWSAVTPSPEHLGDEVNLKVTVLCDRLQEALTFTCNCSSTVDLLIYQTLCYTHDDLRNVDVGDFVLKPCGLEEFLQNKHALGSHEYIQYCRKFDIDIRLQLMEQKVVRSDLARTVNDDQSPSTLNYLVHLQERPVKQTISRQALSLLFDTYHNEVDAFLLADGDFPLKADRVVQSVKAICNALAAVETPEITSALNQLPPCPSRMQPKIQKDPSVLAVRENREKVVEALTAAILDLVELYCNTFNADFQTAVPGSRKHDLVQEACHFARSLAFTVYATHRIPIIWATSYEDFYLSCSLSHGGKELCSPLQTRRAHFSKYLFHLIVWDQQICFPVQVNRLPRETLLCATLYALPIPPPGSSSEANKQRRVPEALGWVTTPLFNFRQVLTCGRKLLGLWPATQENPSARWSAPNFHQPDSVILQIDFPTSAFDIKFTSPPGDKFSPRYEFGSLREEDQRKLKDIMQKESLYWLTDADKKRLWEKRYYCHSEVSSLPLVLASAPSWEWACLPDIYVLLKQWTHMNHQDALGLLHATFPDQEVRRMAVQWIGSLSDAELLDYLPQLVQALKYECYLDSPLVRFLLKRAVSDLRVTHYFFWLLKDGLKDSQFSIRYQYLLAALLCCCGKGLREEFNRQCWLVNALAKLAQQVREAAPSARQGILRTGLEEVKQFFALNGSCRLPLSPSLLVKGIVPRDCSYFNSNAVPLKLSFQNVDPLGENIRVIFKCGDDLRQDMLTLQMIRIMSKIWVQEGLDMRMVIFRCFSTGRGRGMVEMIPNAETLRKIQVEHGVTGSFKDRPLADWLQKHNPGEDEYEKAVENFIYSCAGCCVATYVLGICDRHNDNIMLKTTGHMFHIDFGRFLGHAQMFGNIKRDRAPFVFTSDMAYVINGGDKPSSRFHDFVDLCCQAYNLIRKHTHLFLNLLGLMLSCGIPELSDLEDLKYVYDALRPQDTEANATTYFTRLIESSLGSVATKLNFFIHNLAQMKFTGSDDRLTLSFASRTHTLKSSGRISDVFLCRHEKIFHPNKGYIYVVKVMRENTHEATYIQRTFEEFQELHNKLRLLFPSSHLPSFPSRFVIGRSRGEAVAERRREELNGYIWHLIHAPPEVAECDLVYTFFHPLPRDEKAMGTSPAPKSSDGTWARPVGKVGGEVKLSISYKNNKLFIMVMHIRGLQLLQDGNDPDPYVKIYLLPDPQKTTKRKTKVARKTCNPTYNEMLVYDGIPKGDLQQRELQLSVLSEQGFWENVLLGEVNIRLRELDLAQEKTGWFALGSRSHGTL

[9] = target: RAF proto-oncogene serine/threonine-protein kinase (Homo sapiens) (UniProt P04049); conditions: at 10 µM
RAF proto-oncogene serine/threonine-protein kinase (Homo sapiens), sequence (P04049 whole entry): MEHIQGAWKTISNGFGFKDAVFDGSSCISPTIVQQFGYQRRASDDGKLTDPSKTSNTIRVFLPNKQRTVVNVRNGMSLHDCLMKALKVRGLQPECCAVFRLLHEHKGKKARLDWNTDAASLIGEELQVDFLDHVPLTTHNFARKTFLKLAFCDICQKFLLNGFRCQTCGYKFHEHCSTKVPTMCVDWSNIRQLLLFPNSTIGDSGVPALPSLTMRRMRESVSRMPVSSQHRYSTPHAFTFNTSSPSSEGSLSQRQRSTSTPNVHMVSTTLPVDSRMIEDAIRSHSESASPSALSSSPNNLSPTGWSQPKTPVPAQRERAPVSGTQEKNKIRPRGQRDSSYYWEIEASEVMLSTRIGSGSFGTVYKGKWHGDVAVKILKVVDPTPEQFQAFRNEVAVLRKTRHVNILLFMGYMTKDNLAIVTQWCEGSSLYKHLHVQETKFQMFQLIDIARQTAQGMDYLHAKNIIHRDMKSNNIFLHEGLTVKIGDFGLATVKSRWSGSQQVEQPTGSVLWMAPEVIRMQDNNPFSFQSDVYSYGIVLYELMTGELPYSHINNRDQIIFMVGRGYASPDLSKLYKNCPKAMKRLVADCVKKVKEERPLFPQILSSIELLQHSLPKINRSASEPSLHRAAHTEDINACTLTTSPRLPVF

[10] = target: Serine/threonine-protein kinase 24 (Homo sapiens) (UniProt Q9Y6E0); assay: Selectivity interaction (KinomeScan (DiscoverX)) EUB0000607a STK24; conditions: at 10 µM
Serine/threonine-protein kinase 24 (Homo sapiens), sequence (Q9Y6E0 whole entry, looked up): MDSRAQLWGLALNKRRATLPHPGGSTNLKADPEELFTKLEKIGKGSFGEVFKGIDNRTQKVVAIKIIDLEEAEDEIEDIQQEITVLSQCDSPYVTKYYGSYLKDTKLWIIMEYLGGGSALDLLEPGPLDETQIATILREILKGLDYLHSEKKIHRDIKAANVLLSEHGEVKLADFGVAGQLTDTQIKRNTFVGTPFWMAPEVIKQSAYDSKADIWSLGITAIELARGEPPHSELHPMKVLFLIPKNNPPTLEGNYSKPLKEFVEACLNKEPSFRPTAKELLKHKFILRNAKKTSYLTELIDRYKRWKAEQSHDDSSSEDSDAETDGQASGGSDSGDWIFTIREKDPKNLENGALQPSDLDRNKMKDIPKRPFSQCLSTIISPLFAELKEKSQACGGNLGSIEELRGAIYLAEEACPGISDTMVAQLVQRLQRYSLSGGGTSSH

[11] = target: T3, SNF-related serine/threonine-protein kinase (Homo sapiens) (UniProt Q9NRH2); assay: Selectivity interaction (KinomeScan (DiscoverX)) EUB0000607a SNRK; conditions: at 10 µM
T3 sequence (whole entry): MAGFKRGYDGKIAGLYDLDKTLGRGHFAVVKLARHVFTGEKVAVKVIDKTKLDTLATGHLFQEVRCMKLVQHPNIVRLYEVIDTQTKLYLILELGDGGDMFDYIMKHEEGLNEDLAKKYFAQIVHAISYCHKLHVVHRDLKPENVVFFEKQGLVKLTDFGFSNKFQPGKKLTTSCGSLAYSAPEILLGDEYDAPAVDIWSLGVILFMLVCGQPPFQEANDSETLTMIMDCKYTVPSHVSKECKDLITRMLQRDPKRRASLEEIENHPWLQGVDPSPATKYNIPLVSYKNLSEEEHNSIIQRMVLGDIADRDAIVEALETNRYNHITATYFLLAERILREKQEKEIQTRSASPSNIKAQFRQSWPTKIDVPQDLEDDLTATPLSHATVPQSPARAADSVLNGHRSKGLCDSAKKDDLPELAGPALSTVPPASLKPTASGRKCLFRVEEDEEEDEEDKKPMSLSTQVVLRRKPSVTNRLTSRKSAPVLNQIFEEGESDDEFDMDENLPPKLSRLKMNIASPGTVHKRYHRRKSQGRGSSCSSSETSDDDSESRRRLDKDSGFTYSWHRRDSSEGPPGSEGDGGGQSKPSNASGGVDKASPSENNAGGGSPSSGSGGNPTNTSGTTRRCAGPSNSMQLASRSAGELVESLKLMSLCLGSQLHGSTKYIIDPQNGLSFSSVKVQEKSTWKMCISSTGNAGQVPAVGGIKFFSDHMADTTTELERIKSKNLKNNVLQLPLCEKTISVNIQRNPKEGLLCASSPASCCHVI

COc1cc(Nc2nc(C)cc(-c3cnn4nc(OC)ccc34)n2)cc(C(F)(F)F)c1
% of control [1]: 83%

CN1Cc2nccc(-c3cn(C)nc3-c3ccc(F)cc3)c2C1=O
% of inhibition [2]: 10%

CCc1cc(Nc2nccc(-c3c(-c4ccc(OC)c(C(=O)Nc5c(F)cccc5F)c4)nc4ccccn34)n2)c(OC)cc1N1CCC(N2CCN(S(C)(=O)=O)CC2)CC1
% of inhibition [3]: 57%

CN(C(=O)c1cnn2cccnc12)c1cc2c(cc1N1CCOCC1)C(=O)N(C[C@@H](F)C(C)(C)O)C2
EC50 [4]: > 50 µM

CC[C@@H]1[C@H](F)C(=O)N[C@@H]1COc1nccc2cc(C(N)=O)c(OC)cc12 [ZIMLOVISERTIB]
% of inhibition [5]: 3.7%
% of inhibition ([6]; at 0.01 µM): 6.8%
% of inhibition ([6]; at 0.04 µM): 3.8%
% of inhibition ([6]; at 0.2 µM): -2.9%
% of inhibition ([6]; at 1 µM): -3.1%
% of inhibition ([6]; at 5 µM): -8.6%

CCC(=O)N1CCN(c2ccc(-n3c(=O)ccc4cnc5ccc(-c6cnc7ccccc7c6)cc5c43)cc2C(F)(F)F)CC1
% of control [7]: 15%
% of control [8]: 25%

Cc1cc([C@@H](C)Nc2ccccc2C(=O)O)c2nc(N3CCOCC3)cc(=O)n2c1 [AZD-6482]
% of control [9]: 100%

CNC(=O)Nc1ccc(-c2nc(N3CC4CCC(C3)O4)c3cnn(C4CCC5(CC4)OCCO5)c3n2)cc1
% of control [10]: 96%
% of control [11]: 100%

Source: ChEMBL document CHEMBL5465560, “Selectivity Literature for EUbOPEN Chemogenomic Library” (2024)
